Converted amounts (≈) assume the structure as drawn. “And” between values parts separate entries of the source, which are not always exact repeats. Equal values may be shown once. One block for each molecule: values may come before it.
Experiments:
Experiment in all cases: ≥ marks a high value that may be exact or a test limit, other limits are often not marked, values filed in µg/mL are converted to µM
[1] = tested on: Candida albicans ATCC 20032
[2] = tested on: Staphylococcus aureus ATCC 25923
Escherichia coli ML-35p = tested on: Escherichia coli ML-35p
[3] = tested on: Listeria monocytogenes EGD
[4] = tested on: Escherichia coli ATCC 25922
[5] = tested on: Pseudomonas aeruginosa Ps4
[6] = tested on: Pseudomonas aeruginosa PAO1
Escherichia coli MG1655 = tested on: Escherichia coli MG1655
Candida albicans = tested on: Candida albicans
Staphylococcus aureus = tested on: Staphylococcus aureus
[7] = tested on: Staphylococcus haemolyticus
[8] = tested on: Bacillus subtilis ATCC 6633
Escherichia coli W3110 = tested on: Escherichia coli W3110
[9] = tested on: Klebsiella pneumoniae ATCC BAA-1705
[10] = tested on: Staphylococcus epidermidis C621
[11] = tested on: Pseudomonas aeruginosa ATCC 27853
Escherichia coli UB1005 = tested on: Escherichia coli UB1005
[12] = tested on: Enterococcus faecalis ATCC 29212

MIC [1]: 23.1 µM (≈ 49.8 µg/mL)
MIC [2]: 5.8 µM (≈ 12.5 µg/mL)
SMILES: CC[C@H](C)[C@@H]1NC(=O)[C@H](CO)NC(=O)[C@H](CCCCN)NC(=O)[C@H]([C@@H](C)O)NC(=O)[C@H](Cc2c[nH]c3ccccc23)NC(=O)[C@@H](NC(=O)CNC(=O)[C@H](CCCN=C(N)N)NC(=O)[C@H](CC(C)C)NC(=O)[C@H](C)NC(=O)[C@H](C)N)CSSC[C@@H](C(=O)N[C@@H](CO)C(=O)NCC(=O)N[C@@H](CCCCN)C(=O)N[C@@H](CCCN=C(N)N)C(=O)O)NC(=O)[C@@H]2CCCN2C(=O)[C@H](CCCCN)NC(=O)[C@@H]2CCCN2C(=O)[C@@H]2CCCN2C1=O [AALRGCWTKSIPPKPCSGKR]

MIC (Escherichia coli ML-35p): 2.4 µM and 7.1 µM
MIC [3]: 2.2 µM and 1.8 µM
SMILES: CC[C@H](C)[C@@H]1NC(=O)[C@H](CCCN=C(N)N)NC(=O)[C@@H]2CSSC[C@@H]3NC(=O)[C@H]([C@@H](C)O)NC(=O)CNC(=O)[C@H](Cc4ccc(O)cc4)NC(=O)[C@H](CCCN=C(N)N)NC(=O)[C@H](CCCN=C(N)N)NC(=O)[C@H](CCC(=O)O)NC(=O)CNC(=O)[C@H](C)NC(=O)[C@H](Cc4ccccc4)NC(=O)[C@H](CSSC[C@H](NC(=O)[C@H](Cc4ccccc4)NC(=O)[C@H](C)NC(=O)[C@H](Cc4c[nH]c5ccccc45)NC(=O)[C@H](C(C)C)NC(=O)[C@H](CCCN=C(N)N)NC(=O)CNC(=O)[C@H](CC(C)C)NC(=O)[C@H](Cc4ccc(O)cc4)NC(=O)[C@H](Cc4ccccc4)NC3=O)C(=O)N[C@H](C(=O)O)CSSC[C@H](NC(=O)[C@H](C)N)C(=O)N[C@@H](Cc3ccc(O)cc3)C(=O)N2)NC(=O)[C@H](C)NC(=O)[C@@H]2CCCN2C1=O [ACYCRIPACFAGERRYGTCFYLGRVWAFCC]

MIC [4]: 86.5 µM (≈ 125 µg/mL)
MIC [5]: ≥ 173 µM
SMILES: CC[C@H](C)[C@H](NC(=O)[C@H](CCCN=C(N)N)NC(=O)[C@@H](NC(=O)[C@H](CC(N)=O)NC(=O)[C@H](CCCN=C(N)N)NC(=O)[C@H](CCC(N)=O)NC(=O)[C@H](Cc1c[nH]c2ccccc12)NC(=O)[C@@H](N)Cc1ccccc1)[C@@H](C)CC)C(=O)N[C@@H](CCCN=C(N)N)C(=O)N[C@@H](CCCN=C(N)N)C(N)=O [FWQRNIRIRR]

MIC [6]: 8 µM (≈ 16.9 µg/mL)
MIC (Escherichia coli MG1655): 2.83 µM (≈ 5.96 µg/mL)
MIC (Candida albicans): 22.6 µM (≈ 47.7 µg/mL)
MIC [2]: 5.66 µM (≈ 11.9 µg/mL)
SMILES: CSCC[C@H](NC(=O)[C@@H](NC(=O)[C@H](CCCCN)NC(=O)[C@H](C)NC(=O)[C@H](CC(C)C)NC(=O)CN)C(C)C)C(=O)N[C@@H](CCCN=C(N)N)C(=O)N[C@@H](CCCCN)C(=O)N[C@H](C(=O)N[C@@H](CC(C)C)C(=O)NCC(=O)N[C@@H](Cc1ccc(O)cc1)C(=O)N[C@@H](CC(C)C)C(=O)N[C@@H](CCCN=C(N)N)C(=O)N[C@@H](CC(N)=O)C(=O)N[C@H](C(=O)N[C@@H](Cc1ccc(O)cc1)C(=O)N[C@@H](CCCCN)C(N)=O)C(C)C)C(C)C [GLAKVMRKVLGYLRNVYK]

MIC (Staphylococcus aureus): 300 µM (≈ 638 µg/mL)
SMILES: CC(C)C[C@H](NC(=O)CNC(=O)CNC(=O)[C@H](C)NC(=O)[C@@H](NC(=O)[C@H](CC(N)=O)NC(=O)[C@H](CC(C)C)NC(=O)[C@H](CC(C)C)NC(=O)[C@H](CC(=O)O)NC(=O)[C@@H](NC(=O)[C@@H](NC(=O)[C@@H](NC(=O)CN)C(C)C)C(C)C)[C@@H](C)O)[C@@H](C)O)C(=O)N[C@@H](CC(C)C)C(=O)NCC(=O)N[C@@H](CC(N)=O)C(=O)N[C@@H](CC(C)C)C(=O)N[C@H](C(=O)NCC(=O)N[C@@H](CO)C(=O)N[C@@H](CC(C)C)C(=O)N[C@@H](CO)C(=O)NCC(N)=O)C(C)C [GVVTDLLNTAGGLLGNLVGSLSG]
MIC [7]: ≥ 400 µM

MIC [4]: > 50.9 µM
MIC [8]: ≥ 50.9 µM
MIC [1]: ≥ 50.9 µM
MIC [2]: > 50.9 µM
SMILES: CC[C@H](C)[C@H](N)C(=O)N[C@@H](CC(C)C)C(=O)NCC(=O)N1CCC[C@H]1C(=O)N[C@H](C(=O)N[C@H](C(=O)N[C@@H](CO)C(=O)N[C@H](C(=O)N[C@H](C(=O)NCC(=O)N[C@@H](CC(N)=O)C(=O)N[C@@H](C)C(=O)N[C@@H](CC(C)C)C(=O)NCC(=O)NCC(=O)N[C@@H](CC(C)C)C(=O)N[C@@H](CC(C)C)C(=O)N[C@@H](CCCCN)C(=O)N[C@@H](CC(N)=O)C(=O)N[C@@H](CC(C)C)C(N)=O)[C@@H](C)CC)[C@@H](C)O)[C@@H](C)CC)C(C)C [ILGPVISTIGNALGGLLKNL]

MIC [4]: > 62.3 µM
MIC [8]: ≥ 62.3 µM
MIC [1]: ≥ 62.3 µM
MIC [2]: > 62.3 µM
SMILES: CC[C@H](C)[C@H](N)C(=O)N[C@@H](CC(C)C)C(=O)NCC(=O)N1CCC[C@H]1C(=O)N[C@H](C(=O)N[C@@H](CC(C)C)C(=O)NCC(=O)N[C@@H](CC(C)C)C(=O)N[C@H](C(=O)N[C@@H](CO)C(=O)N[C@@H](CC(N)=O)C(=O)N[C@@H](C)C(=O)N[C@@H](CC(C)C)C(=O)NCC(=O)NCC(=O)N[C@@H](CC(C)C)C(=O)N[C@@H](CC(C)C)C(N)=O)C(C)C)C(C)C [ILGPVLGLVSNALGGLL]

SMILES: CC[C@H](C)[C@H](N)C(=O)N[C@@H](Cc1c[nH]c2ccccc12)C(=O)N[C@@H](Cc1c[nH]c2ccccc12)C(=O)N[C@@H](C)C(=O)N[C@@H](CCCCN)C(=O)N[C@@H](CC(C)C)C(=O)NCC(=O)N[C@@H](CC(C)C)C(=O)N[C@@H](CCCCN)C(=O)N[C@@H](CC(C)C)C(=O)N[C@@H](CC(C)C)C(=O)N[C@@H](CCCN=C(N)N)C(=O)N[C@@H](Cc1ccc(O)cc1)C(=O)N[C@@H](CCCN=C(N)N)C(=O)N[C@@H](CCCN=C(N)N)C(=O)N[C@@H](Cc1c[nH]c2ccccc12)C(=O)N[C@@H](Cc1ccc(O)cc1)C(=O)O [IWWAKLGLKLLRYRRWY]
MIC (Escherichia coli W3110): 2 µM (≈ 4.64 µg/mL)
MIC [9]: 4 µM (≈ 9.29 µg/mL)

MIC (Escherichia coli W3110): 4 µM (≈ 9.38 µg/mL)
MIC [9]: ≥ 32 µM
SMILES: CC[C@H](C)[C@H](N)C(=O)N[C@@H](Cc1c[nH]c2ccccc12)C(=O)N[C@@H](Cc1c[nH]c2ccccc12)C(=O)N[C@@H](C)C(=O)N[C@@H](CCCCN)C(=O)N[C@@H](Cc1c[nH]c2ccccc12)C(=O)NCC(=O)N[C@@H](CC(C)C)C(=O)N[C@@H](CCCCN)C(=O)N[C@@H](CC(C)C)C(=O)N[C@@H](CC(C)C)C(=O)N[C@@H](CCCN=C(N)N)C(=O)N[C@@H](Cc1ccc(O)cc1)C(=O)N[C@@H](CCCN=C(N)N)C(=O)N[C@@H](CCCN=C(N)N)C(=O)N[C@H](C(=O)N[C@@H](Cc1c[nH]c2ccccc12)C(=O)O)[C@@H](C)CC [IWWAKWGLKLLRYRRIW]

MIC [10]: 4 µM (≈ 10.2 µg/mL)
MIC [11]: 8 µM (≈ 20.4 µg/mL)
MIC (Escherichia coli UB1005): 8 µM (≈ 20.4 µg/mL)
MIC [4]: 16 µM (≈ 40.9 µg/mL)
MIC [8]: 2 µM (≈ 5.11 µg/mL)
MIC [12]: > 32 µM
MIC [2]: 32 µM (≈ 81.8 µg/mL)
SMILES: C[C@H](NC(=O)[C@H](C)NC(=O)[C@H](C)NC(=O)[C@H](CCCCN)NC(=O)[C@@H](N)CCCCN)C(=O)N[C@@H](C)C(=O)N[C@@H](Cc1ccccc1)C(=O)N[C@@H](C)C(=O)N[C@@H](C)C(=O)N[C@@H](Cc1ccccc1)C(=O)N[C@@H](C)C(=O)N[C@@H](C)C(=O)N[C@@H](Cc1c[nH]c2ccccc12)C(=O)N[C@@H](Cc1ccccc1)C(=O)N[C@@H](C)C(=O)N[C@@H](C)C(=O)N[C@@H](Cc1ccccc1)C(=O)N[C@@H](C)C(=O)N[C@@H](C)C(=O)N[C@@H](C)C(=O)N[C@@H](C)C(=O)N[C@@H](CCCCN)C(=O)N[C@@H](CCCCN)C(=O)N[C@@H](CCCCN)C(=O)N[C@@H](CCCCN)C(N)=O [KKAAAAFAAFAAWFAAFAAAAKKKK]

MIC [5]: ≥ 162 µM
SMILES: CC[C@H](C)[C@H](NC(=O)[C@H](CC(N)=O)NC(=O)[C@H](CCCN=C(N)N)NC(=O)[C@H](CCC(N)=O)NC(=O)[C@H](Cc1c[nH]c2ccccc12)NC(=O)[C@@H](N)CCCCN)C(=O)N[C@@H](CCCN=C(N)N)C(=O)N[C@@H](CCCCN)C(=O)N[C@H](C(=O)N[C@@H](CCCN=C(N)N)C(=O)N[C@@H](CCCN=C(N)N)C(N)=O)C(C)C [KWQRNIRKVRR]

Source: DBAASP
